Measured values: patent publication US10758522B2, “Small molecule analogs of the nemo binding peptide” (THE SCRIPPS RESEARCH INSTITUTE, priority 2015, dated 2020)
“Also recorded” adds a separate entry of the source.

What was measured:
[1] = system: K14-Cre+/−; Ercc1−/fl; Skh1−/− mice; experiment: Naked mouse skin photoaging study, topical treatment; format: in vivo
Experimental: Naked mice of strain K14-Cre^+/−; Ercc1^−/fl; Skh1^−/− were treated with SR12343 versus vehicle control, then exposed to UV light for […]. The NBD mimetic SR12343 and SR2460 were tested for their ability to reduce the effects of photoaging in a mouse model. To make analysis of skin aging easier, usually hairless mice are utilized. Previously studies have shown that exposure of the hairless Skh1^−/− mouse to UV results in skin aging over 5 months as measured by skin thickness, elastosis, collagen damage, synthesis and degradation, increased ratio of collagen III to I, increased GAGs, and wrinkles and sagging. To accelerate this photoaging process, we generated a mouse model where Ercc1-dependent DNA repair activity is eliminated in K14 expressing skin cells in the Skh1^−/− mice (K14-Cre^+/−; Ercc1^−/fl; Skh1^−/− mice). In these mice, chronic UV exposure gives rise to evidence of photoaging 6 times faster than in the Skh1^−/− mice, allowing for analysis of skin aging in 2-4 weeks (FIGS. 51 (A, B, and C).
For testing of drugs for effects on photoargng in the K14-Cre^+/−; Ercc1^−/fl; Skh1^−/− mice, the mice are first tattooed to outlined quadrants for drug treatment. The mice were then exposed to UV 3× (total of 1 kJ/m^2/wk) for 4 weeks in a tanning booth. This dose regiment is the equivalent of one year of sun exposure.
A 50 mg/ml solution of SR12343 was then prepared in a DMSO gel for topical application. The SR12343 gel was administered topically 5 times per week and mice exposed to UV 3× per week as indicated. It is important to note that the compound was administered following UV dosing to eliminate any anti-UV effects of the drug. At the midway point and at the end of the experiment, the mice were analyzed using a TEWL Meter for skin thickness, elasticity and hydration. At the time of sacrifice, skin sections are taken for analysis of the extent of cellular senescence by RT-PCR.

NF-κB [2] = experiment: EMSA of NF-κB DNA binding in C2C12 cells; format: cell-based, mouse; settings: 200 μM
Experimental: (§1) To confirm that the NBD mimetics reduce IKK activity, the extent of phosphorylation of the IKK target, IκBα, in response to 10 ng/ml of TNF-α was determined by Western blot at 0, 5 and 10 min after TNF-α stimulation. […] To determine if the mimetics also reduce NF-κB DNA binding activity, electrophoretic mobility shift assay (EMSA) was conducted both in vivo and in vitro.
(§2) Cytoplasmic and nuclear fractions were extracted using the NE-PER nuclear and cytoplasmic extraction reagents (ThermoFisher) according to the manufacturer's instructions. The gel shift assay was performed by following the previously described method (41). In brief, 5 μg of nuclear extract was incubated with gel shift binding buffer and an α-^32P-deoxycytodine triphosphate-radiolabeled NF-κB probe for 20 min at room temperature (MP Biomedicals). The oligonucleotide sequences are as follows: NF-κB template, 5′-[…]-3′; NF-κB annealing, 5′-[…]-3′. The reaction product was separated on a 6% non-denaturing polyacrylamide gel.

[3] = target: T1, IKK complex (IKKß, IKKα and NEMO) (Homo sapiens, UniProt Q9Y6K9); experiment: Co-immunoprecipitation of NEMO with IKKß in 293 cells; format: cell-based; settings: Zinc-5 at 4 hours, Zinc-13 at 1 hour, NBD peptide at 4 hours
T1 construct: analyzed by Western blot for the level of co-precipitated NEMO; endogenous in cells; host or cells: 293 (HEK293) cells
From the text: FIG. 8 is a bar graph showing the inhibition of TNFα by NBDA-1 (Zinc-13). […] In addition, we have examined the ability of the compounds to disrupt the IKK complex, comprised of IKKß, IKKα and NEMO.
A non-functional, related compound Zinc-7 had no effect.

[4] = system: embryonic fibroblasts from Ercc1−/− mice; experiment: Senescence rescue assay in ERCC1-deficient murine embryonic fibroblasts (SA-ß-gal); format: cell-based, mouse; settings: oxidative stress conditions (20% O2)
From the text: In an attempt to identify new drugs able to improve healthspan, we have developed an assay for screening for drugs able to rescue primary “aged” fibroblasts from senescence. This assay uses murine embryonic fibroblasts (MEFs) from mice with accelerated aging due to a deficiency in an important DNA repair pathway, ERCC1-XPF. These MEFs undergo rapid senescence in culture, especially when grown under the high oxygen conditions that confers oxidative stress (FIGS. 18 and 19).

p-IκBα = experiment: Western blot of IκBα phosphorylation after TNF-α; format: cell-based; settings: 10 ng/ml TNF-α, 0, 5 and 10 min, 100 μM compound
Experimental: as §1
HEK293 cells grown in a 6-well plate at 1×10^6 cells/well were left untreated or treated with 100 μM of ZINC12909780 or ZINC3369392 for 30 min, followed by 10 ng/ml of TNFα for 0, 5 and 10 min. Cells were then harvested for western blot. Cell lysate was prepared in RIPA buffer (20 mM Tris-HCl (pH 7.5), 150 mM NaCl, 1 mM Na^2EDTA, 1 mM EGTA, 1% NP-40, 1% sodium deoxycholate, 2.5 mM sodium pyrophosphate, 1 mM beta-glycerophosphate, 1 mM Na3VO4, 1 μg/ml leupeptin, 1× protease inhibitor cocktails (sigma) and 1× Halt phosphatase inhibitor cocktail (Thermo)). 30 ug of protein was resolved by MINI-PROTEAN TGX 4-15% SDS-PAGE. Blots were blocked in 5% non-fat milk. Primary antibodies were incubated at 4° C. overnight and secondary antibodies were incubated at room temperature for 1 hour. Anti-p-IκBα (1:1000 CST) and anti-IκBα (1:2000 CST) were used to assess NF-κB activation. Anti-GAPDH (1:5000 CST) was used as a loading control.

NF-κB [5] = experiment: EMSA of NF-κB DNA binding in skeletal muscle of mdx mice after acute treatment; format: in vivo, mouse; settings: single ip injection at 10 mg/kg, 1 and 2 hours post-treatment
Experimental: We also tested the compounds for their ability to inhibit NF-κB activity acutely in a murine model of disease. For these experiments, a mouse model of Duchenne muscular dystrophy, which has elevated NF-κB activity in muscle, was treated with Zinc-13 (NBDA-1) and Zinc-5 (NBDA-2) and the level of NF-κB activity determined by gel shift analysis at 1 and 2 hours post-treatment.
as §1, §2

[6] = system: K14-Cre; Ercc1−/flox mice; experiment: Topical treatment of skin aging in K14-Cre; Ercc1−/flox mice; format: in vivo, mouse; settings: daily
Experimental: To test the ability of NBDA-1 to function in vivo, the drug was tested in several models of aging. In FIG. 12, the ability of topical treatment of NBDA-1 to reduce signs of skin aging is shown. Areas on the back of normal mice or mice with enhanced skin aging (K14-Cre; Ercc1^−/flox) were shaved and then treated daily with drugs or control creams.

T1 sequence (Q9Y6K9 whole entry, one chain of several): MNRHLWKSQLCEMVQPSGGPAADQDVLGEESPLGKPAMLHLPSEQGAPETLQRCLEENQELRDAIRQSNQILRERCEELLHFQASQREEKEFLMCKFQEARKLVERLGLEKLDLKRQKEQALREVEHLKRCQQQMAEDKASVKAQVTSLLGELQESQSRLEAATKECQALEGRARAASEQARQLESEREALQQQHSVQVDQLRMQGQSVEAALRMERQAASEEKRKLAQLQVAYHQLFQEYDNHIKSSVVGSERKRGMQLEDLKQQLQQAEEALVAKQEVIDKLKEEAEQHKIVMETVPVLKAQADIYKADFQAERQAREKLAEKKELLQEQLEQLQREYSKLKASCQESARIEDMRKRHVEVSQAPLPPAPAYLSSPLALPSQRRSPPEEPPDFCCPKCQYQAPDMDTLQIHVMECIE

SMILES | overall appearance of the skin, wrinkles ([1]; 50 mg/ml in DMSO gel, topical 5 times per week, UV 3× per week) | skin elasticity ([1]; topical gel, UV-exposed) | skin hydration ([1]; topical gel, UV-exposed) | expression of senescent marker p16 in skin ([1]; topical gel, UV-exposed, RT-PCR) | molecular markers of skin aging and appearance of the skin ([1]; topical treatment) | TNFα-induced NF-κB DNA binding activity (EMSA) (NF-κB [2]) | level of NEMO co-immunoprecipitated with IKKß [3] | senescence (SA-ß-gal staining) of ERCC1-deficient MEFs [4] | level of phospho-IκBα / phosphorylation of IkB (p-IκBα) | level of phospho-IκBα / phosphorylation of IkB (p-IκBα; listed as Zinc-13) | level of phospho-IκBα / phosphorylation of IkB (p-IκBα; listed as compound 12909780) | NF-κB DNA binding activity in quadriceps of mdx mice (NF-κB [5]; listed as Zinc-13, 10 mg/kg) | NF-κB DNA binding activity in quadriceps of mdx mice (NF-κB [5]; listed as compound 12909780, 10 mg/kg) | epidermal thickness / skin architecture [6]
O=C(CNc1ccc(Cl)cn1)NCCc1cccc(Br)c1 [SR12343, N-(3-bromophenethyl)-2-((5-chloropyridin-2-yl)amino)acetamide] | reducing the number and depth of the wrinkles | restores skin elasticity | improved skin hydration | lowered the expression of senescent markers such as p16 | improved molecular markers of skin aging as well as the overall appearance of the skin |  |  |  |  |  |  |  |  | 
Nc1ncccc1C(=O)OCC(=O)Nc1ccc(Cl)cc1F [NBDA-1, 2-((4-chloro-2-fluorophenyl)amino)-2-oxoethyl 2-aminonicotinate] |  |  |  |  |  | significantly decreased TNFα-induced NF-κB DNA binding activity | reduced the level of co-immunoprecipitated NEMO; also recorded: disrupt the interaction between IKKß and IKKgamma | reduced senescence | reduces the level of phospho-IκB | reduced phosphorylation of IkB | mild reduction | reduced NF-κB DNA binding activity in the skeletal muscle (quadricep) | inhibited NF-κB DNA binding activity in quadriceps | improved epidermal thickness to a greater extent than the peptide on which it was modeled
